Structures can show the parent of a compound that is named as a salt.
Experiments:
[1] = biological target: T1, DPP-IV from porcine kidney (Sus scrofa, UniProt P22411); assay: In vitro DPP IV inhibition measurement (fluorimetric, Gly-Pro-AMC substrate); assay type: biochemical; conditions: 50 μM Gly-Pro-AMC, pH 8, 30° C.
T1 construct: DPP-IV from porcine kidney (D-7052); purchased Sigma Chemical Company, USA D-7052; host or cells: porcine kidney (tissue-derived)
Protocol: DPP-IV from porcine kidney (D-7052) and the substrate Gly-Pro-7-amido-4-methylcoumar0in hydrobromide (Gly-Pro-AMC, G2761) were obtained from Sigma Chemical Company, USA. Stock solutions of test compounds were prepared in dimethylsulfoxide. DPP IV enzyme cleaves the peptide substrate Gly-Pro-AMC leading to the formation of AMC, which is highly fluorescent. Molecules that inhibit DPP IV prevent or reduce the liberation of AMC from the substrate. The ability of test compounds to inhibit DPP IV was measured fluorimetrically by monitoring the formation of AMC. The assay was carried out in 20 mM Tris.HCl, pH 8 buffer. Test compounds were incubated with the enzyme (5 mU/100 μl) in a 96-well black flat bottom microtiter plate (Greiner bio-one, Germany) for 20 minutes at 30° C. and the reaction was initiated by the addition of 50 μM Gly-Pro-AMC. After 30 minutes incubation at 30° C., the fluorescence at 460 nm was measured (λex=360 nm) in a Spectramax Gemini spectrofluorimeter (Molecular Devices, USA). IC50, the concentration of compound required to inhibit 50% of enzyme activity was determined and the compounds were rated accordingly. For the IC50 determination, non-linear fitting of the dose-response curves were carried out using Kaleidagraph v3 software. LAF237 [Novarti's vildagliptin is a new class of oral antidiabetic agents known as dipeptidyl peptidase IV inhibitors (DPP-IV) inhibitors] was used as the standard inhibitor for the assay.

Zucker fa/fa fatty rats = assay: In vivo efficacy in genetic models: oral glucose challenge in Zucker fa/fa rats; set-up: species or system rat; conditions: 3 mg/kg
Protocol: (a) Zucker fa/fa rats Zucker fa/fa fatty rats were obtained from IffaCredo, France. The animals were maintained under 12 hour light and dark cycle at 24+/−2° C., given standard laboratory chow (NIN, Hyderabad, India) and water, ad libitum. The test compound (Example-4) was administered at 3 mg/kg dose to overnight fasted animals. The control animals received the vehicle (0.2% tween 80, dosed at 1 ml/kg) orally. Thirty minutes after administration of test compound, 2 g/kg glucose at 5 ml/kg was administered by oral gavage. Blood samples were collected at 0 (prior to compound administration), 7, 20, 40, 60 and 120 min after glucose challenge, for estimation of plasma glucose and insulin levels, and DPP-IV activity. Additional blood samples were collected in chilled EDTA tubes and immediately DPP-IV inhibitor (Linco Research, USA) was added to achieve final concentration of 10 μl/mL of blood to estimate GLP-1 levels. Blood samples were centrifuged and separated plasma samples were stored at −20° C. until analysis. Plasma DPP-IV activity and glucose levels were measured as described above (Example-65). Insulin and GLP-1 levels were measured using ELISA kits, as per manufacturer's procedures (Linco Research, USA). […] There was a 7-fold increase in GLP-1 levels at 7 min and 6-fold increase in insulin levels at 15 min after glucose challenge.

Male wistar rats = assay: In vivo efficacy study in rat: oral glucose tolerance (plasma glucose); conditions: 3 mg/kg oral, 2 g/kg oral glucose, measured at 20 min after glucose challenge
Protocol: (§1) Male wistar rats were divided into groups of 6, fasted for approximately 16-18 hours before the experiment, and dosed orally with 0.3, 1, 3 and 10 mg/kg of the test compounds in carboxymethylcellulose (CMC) or Tween 80. After 30 min of test compound dosing, an oral glucose bolus of 2 g/kg was administered directly into the stomach of the test animals. Blood samples obtained at various time points from chronic jugular vein catheters/retro orbital bleed were analyzed for plasma glucose and plasma DPP-IV activity. Measurement of Plasma glucose was carried out using Merckotest Glucose kit (GOD-POD method, Merck) in Selectra Clinical Chemistry analyzer, and area under the curve (AUC) for glucose (0-120 min) was calculated. Plasma DPP-IV activity was measured as described above (Example-64), using 2 μl plasma for every reaction.

[2] = system: Male C57BL/KsJ-db/db mice; assay: In vivo efficacy in genetic models: oral glucose challenge in db/db mice; conditions: 3 mg/kg
Protocol: (b) db/db mice Male C57BL/KsJ-db/db mice of 8 to 14 weeks age, having body weight in the range of 35 to 60 grams, bred at Discovery Research, Dr. Reddy's Laboratories, were used in the experiment. The animals were maintained under 12 hour light and dark cycle at 24+/−2° C., given standard laboratory chow (NIN, Hyderabad, India) and water, ad libitum. The test compound (Example-4) was administered at 3 mg/kg dose. The control animals received the vehicle (0.2% Tween 80, dosed at 10 ml/kg) through oral gavage. 30 minutes after administration of test compound, 1.5 g/kg glucose at 10 ml/kg was administered by oral gavage. Blood samples were collected at 0 (prior to compound administration), 15, 30, 60 and 120 min after glucose challenge for estimation of plasma glucose levels, insulin and DPP-IV activity. Blood samples (0, 7, 15 min) from a satellite group of animals were collected in chilled EDTA tubes and immediately DPP-IV inhibitor (Linco Research) was added to achieve final concentration of 10 μl/mL of blood to estimate GLP-1 levels. Blood samples were centrifuged and separated plasma was stored at −20° C. until analysis. Glucose, Insulin and GLP-1 levels, and plasma DPP-IV activity were measured as described above (Example-66). Compound (Example-4) reduced the glucose levels by 58%. There was 16-fold increase in GLP-1 levels at 7 min and 5.4-fold increase in insulin levels at 15 min after glucose challenge.

Plasma DPP-IV activity = biological target: T2, Plasma DPP-IV activity (Rattus norvegicus, UniProt P14740); assay: In vivo efficacy study in rat: plasma DPP-IV activity after oral dosing; conditions: 3 mg/kg oral, male wistar rats, measured at 20 min after glucose challenge
T2 construct: from tissue; host or cells: plasma of orally dosed male Wistar rats
Protocol: DPP-IV from porcine kidney (D-7052) and the substrate Gly-Pro-7-amido-4-methylcoumar0in hydrobromide (Gly-Pro-AMC, G2761) were obtained from Sigma Chemical Company, USA. Stock solutions of test compounds were prepared in dimethylsulfoxide. DPP IV enzyme cleaves the peptide substrate Gly-Pro-AMC leading to the formation of AMC, which is highly fluorescent. Molecules that inhibit DPP IV prevent or reduce the liberation of AMC from the substrate. The ability of test compounds to inhibit DPP IV was measured fluorimetrically by monitoring the formation of AMC. The assay was carried out in 20 mM Tris.HCl, pH 8 buffer. […] After 30 minutes incubation at 30° C., the fluorescence at 460 nm was measured (λex=360 nm) in a Spectramax Gemini spectrofluorimeter (Molecular Devices, USA). […]
as §1, with “After 30 min of test compound dosing, an oral glucose bolus of 2 g/kg was administered directly into the stomach of the test animals.” left out, “Plasma DPP-IV activity was measured as described above (Example-64), using 2 μl plasma for every reaction.” left out

[3] = at 7 min after glucose challenge
[4] = at 15 min after glucose challenge

T1 sequence (P22411 whole entry): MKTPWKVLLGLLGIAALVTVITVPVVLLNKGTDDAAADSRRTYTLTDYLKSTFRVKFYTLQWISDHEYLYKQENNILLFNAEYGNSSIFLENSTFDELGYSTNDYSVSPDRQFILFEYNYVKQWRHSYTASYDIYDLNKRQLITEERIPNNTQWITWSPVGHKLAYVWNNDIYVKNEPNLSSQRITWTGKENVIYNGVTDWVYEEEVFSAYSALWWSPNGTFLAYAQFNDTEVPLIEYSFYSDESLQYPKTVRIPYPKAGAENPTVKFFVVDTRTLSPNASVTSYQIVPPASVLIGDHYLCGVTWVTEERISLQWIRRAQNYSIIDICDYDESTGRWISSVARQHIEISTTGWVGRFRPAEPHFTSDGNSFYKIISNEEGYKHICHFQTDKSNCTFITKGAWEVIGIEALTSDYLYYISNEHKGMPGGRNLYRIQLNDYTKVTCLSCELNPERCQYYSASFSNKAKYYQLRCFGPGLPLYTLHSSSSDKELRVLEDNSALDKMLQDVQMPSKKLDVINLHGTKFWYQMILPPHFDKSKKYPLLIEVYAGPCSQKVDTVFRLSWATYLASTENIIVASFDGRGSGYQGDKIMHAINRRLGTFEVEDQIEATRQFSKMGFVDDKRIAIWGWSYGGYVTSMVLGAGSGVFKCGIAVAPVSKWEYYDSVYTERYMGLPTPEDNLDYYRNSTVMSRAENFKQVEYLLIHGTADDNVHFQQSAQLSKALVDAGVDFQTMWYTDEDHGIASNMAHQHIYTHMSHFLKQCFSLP
T2 sequence (P14740 37-767 limits assumed): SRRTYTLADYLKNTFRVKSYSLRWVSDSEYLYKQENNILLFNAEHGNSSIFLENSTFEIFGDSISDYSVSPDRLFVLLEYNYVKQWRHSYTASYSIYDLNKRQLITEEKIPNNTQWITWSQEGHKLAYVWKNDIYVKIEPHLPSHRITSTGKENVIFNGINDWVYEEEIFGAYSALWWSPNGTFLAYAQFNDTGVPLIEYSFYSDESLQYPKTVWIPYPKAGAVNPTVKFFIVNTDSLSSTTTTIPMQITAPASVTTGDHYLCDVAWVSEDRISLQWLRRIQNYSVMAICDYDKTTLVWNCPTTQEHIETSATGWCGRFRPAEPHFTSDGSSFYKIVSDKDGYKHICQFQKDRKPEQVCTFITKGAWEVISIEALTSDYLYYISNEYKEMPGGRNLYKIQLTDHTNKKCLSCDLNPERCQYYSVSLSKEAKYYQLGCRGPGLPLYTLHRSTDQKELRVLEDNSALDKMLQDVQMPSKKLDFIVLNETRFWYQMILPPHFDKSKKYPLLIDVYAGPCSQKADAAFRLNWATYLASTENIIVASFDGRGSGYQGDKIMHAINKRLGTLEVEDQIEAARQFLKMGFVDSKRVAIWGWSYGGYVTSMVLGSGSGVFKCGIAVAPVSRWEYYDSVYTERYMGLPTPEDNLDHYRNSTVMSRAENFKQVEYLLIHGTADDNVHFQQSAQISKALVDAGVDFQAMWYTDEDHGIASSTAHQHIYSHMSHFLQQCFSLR

Row | Structure (SMILES) | IC50 [1] | also measured
1 | N#Cc1cccnc1Oc1ccc2[nH]cc(C[C@H](N)C(=O)N3CSC[C@@H]3C#N)c2c1 [Example 32, (S,S) 2-{3-[2-Amino-3-(4-cyano-thiazolidin-3-yl)-3-oxo-propyl]-1H-indol-5-yloxy}-nicotinonitrile. Trifluoroacetic acid salt] | 6.3 nM | –
2 | N#C[C@H]1CSCN1C(=O)[C@@H](N)Cc1c[nH]c2ccc(Oc3ccc([N+](=O)[O-])cn3)cc12 [Example 35, (S,S) 3-{2-Amino-3-[5-(5-nitro-pyridin-2-yloxy)-1H-indol-3-yl]-propionyl}-thiazolidine-4-carbonitrile. Trifluoroacetic acid salt] | 3.7 nM | –
3 | N#C[C@@H]1C[C@H](F)CN1C(=O)[C@@H](N)Cc1c[nH]c2ccc(Oc3ccc([N+](=O)[O-])cc3)cc12 [Example 28, Trifluoroacetic acid salt] | 1.5 nM | –
4 | N#Cc1ccc(Oc2ccc3[nH]cc(C[C@H](N)C(=O)N4CSC[C@@H]4C#N)c3c2)nc1 [Example 33, (S,S) 6-{3-[2-Amino-3-(4-cyano-thiazolidin-3-yl)-3-oxo-propyl]-1H-indol-5-yloxy}-nicotinonitrile. Trifluoroacetic acid salt] | 3.5 nM | –
5 | N#Cc1cccnc1Oc1ccc2[nH]cc(C[C@H](N)C(=O)N3C[C@@H](F)C[C@H]3C#N)c2c1 [Example 27, (S,S,S) 2-{3-[2-Amino-3-(2-cyano-4-fluoro-pyrrolidin-1-yl)-3-oxo-propyl]-1H-indol-5-yloxy} nicotinonitrile. Trifluoroacetic acid salt] | 8.9 nM | –
6 | N#C[C@@H]1CCCN1C(=O)[C@@H](N)Cc1c[nH]c2ccc(Oc3ccc([N+](=O)[O-])cn3)cc12 [Example 4, Trifluoroacetic acid salt] | 1.32 nM | reduction in glucose (Zucker fa/fa fatty rats; 2 g/kg oral glucose 30 min after compound): 55%; increase in GLP-1 levels (Zucker fa/fa fatty rats; [3]): 7 fold; increase in insulin levels (Zucker fa/fa fatty rats; [4]): 6 fold; % Glucose reduction (Male wistar rats): 34%; reduced the glucose levels ([2]; 1.5 g/kg oral glucose 30 min after compound): 58%; increase in GLP-1 levels [2, 3]: 16 fold; increase in insulin levels [2, 4]: 5.4 fold; inhibition at 3 mg/kg (Plasma DPP-IV activity): 90%
7 | N#C[C@@H]1CCCN1C(=O)[C@@H](N)Cc1c[nH]c2ccc(Oc3ccc([N+](=O)[O-])cc3)cc12 [Example 12] | 1.82 nM | % Glucose reduction (Male wistar rats): 22%; inhibition at 3 mg/kg (Plasma DPP-IV activity): 74%
8 | N#Cc1ccc(Oc2ccc3[nH]cc(C[C@H](N)C(=O)N4C[C@@H](F)C[C@H]4C#N)c3c2)nc1 [Example 30, (S,S,S) 6-{3-[2-Amino-3-(2-cyano-4-fluoro-pyrrolidin-1-yl)-3-oxo-propyl]-1H-indol-5-yloxy}-nicotinonitrile. Trifluoroacetic acid salt] | 4.7 nM | –
9 | N#Cc1ccc(Oc2ccc3[nH]cc(C[C@H](N)C(=O)N4CCC[C@H]4C#N)c3c2)nc1 [Example 6, (S,S) 6-{3-[2-Amino-3-(2-cyano-pyrrolidin-1-yl)-3-oxo-propyl]-1H-indol-5-yloxy}-nicotinonitrile. Trifluoroacetic acid salt] | 5.5 nM | –
10 | N#C[C@H]1CSCN1C(=O)[C@@H](N)Cc1c[nH]c2ccc(Oc3ccc([N+](=O)[O-])cc3)cc12 [Example 34, Trifluoroacetic acid salt] | 2.8 nM | –

Reference: US20090149504A1, “Novel 5-Substituted Indole Derivatives As Dipeptidyl Peptidase IV (DPP-IV) Inhibitors” (AURIGENE DISCOVERY TECHNOLOGIES LIMITED, priority 2005, published 2009)
